Results taken from US10570129B2 (Zoetis Services LLC, priority 2015, dated 2020).

Experiments:
D. immitis microfilariae = assay: Dirofilaria immitis, microfilariae (DiMF) in vitro motility assay; type: cell-based; conditions: Dirofilaria immitis, 72 h, read-out: DiMF minimally effective dose (MEC)
Haemonchus contortus L3 = assay: microbe, parasite or virus in culture; type: cell-based; conditions: Haemonchus contortus, 96 h, read-out: HcL3 Minimal Effective Concentration (MEC)

SMILES: O=C(NCc1ccnc(F)c1)n1c2c(c3cc(OC(F)(F)F)ccc31)CN(C/C=C/c1ccc(F)c(F)c1)CC2 [Example 405, (E)-2-(3-(3,4-difluorophenyl)allyl)-N-((2-fluoropyridin-4-yl)methyl)-8-(trifluoromethoxy)-1,2,3,4-tetrahydro-5H-pyrido[4,3-b]indole-5-carboxamide]
- minimal effective concentration (D. immitis microfilariae): 5.7 µM
- minimal effective concentration (Haemonchus contortus L3): 0.3 µM

SMILES: COc1cc(CNC(=O)n2c3c(c4cc(C#N)ccc42)CN(C/C=C/c2ccc(F)c(Cl)c2)CC3)ccn1 [Example 68, (E)-2-(3-(3-chloro-4-fluorophenyl)allyl)-8-cyano-N-((2-methoxypyridin-4-yl)methyl)-1,2,3,4-tetrahydro-5H-pyrido[4,3-b]indole-5-carboxamide]
- minimal effective concentration (D. immitis microfilariae): 0.03 µM
- minimal effective concentration (Haemonchus contortus L3): 0.01 µM

SMILES: N#Cc1ccc2c3c(n(C(=O)NCc4ccnc(F)c4)c2c1)CCN(C/C=C/c1cc(F)c(Cl)c(F)c1)C3 [Example 50, (E)-2-(3-(4-chloro-3,5-difluorophenyl)allyl)-7-cyano-N-((2-fluoropyridin-4-yl)methyl)-1,2,3,4-tetrahydro-5H-pyrido[4,3-b]indole-5-carboxamide]
- minimal effective concentration (D. immitis microfilariae): 10 µM
- minimal effective concentration (Haemonchus contortus L3): 1.8 µM

SMILES: O=C(NCc1ccnc(F)c1)n1c2c(c3ccc(OC(F)(F)F)cc31)CN(C/C=C/c1ccc(F)c(F)c1)CC2 [Example 376, (E)-2-(3-(3,4-difluorophenyl)allyl)-N-((2-fluoropyridin-4-yl)methyl)-7-(trifluoromethoxy)-1,2,3,4-tetrahydro-5H-pyrido[4,3-b]indole-5-carboxamide]
- minimal effective concentration (D. immitis microfilariae): 10 µM
- minimal effective concentration (Haemonchus contortus L3): 0.5 µM

SMILES: COc1ccc(/C=C/CN2CCc3c(c4c(OC(F)(F)F)cccc4n3C(=O)NCc3ccnc(Cl)c3)C2)cc1 [Example 359, (E)-N-((2-chloropyridin-4-yl)methyl)-2-(3-(4-methoxyphenyl)allyl)-9-(trifluoromethoxy)-1,2,3,4-tetrahydro-5H-pyrido[4,3-b]indole-5-carboxamide]
- minimal effective concentration (D. immitis microfilariae): 3.3 µM
- minimal effective concentration (Haemonchus contortus L3): 3.3 µM

SMILES: O=C(NCc1ccnc(F)c1)n1c2c(c3c(F)cc(C(F)(F)F)cc31)CN(C/C=C/c1ccc(Cl)cc1)CC2 [Example 327, (E)-2-(3-(4-chlorophenyl)allyl)-9-fluoro-N-((2-fluoropyridin-4-yl)methyl)-7-(trifluoromethyl)-1,2,3,4-tetrahydro-5H-pyrido[4,3-b]indole-5-carboxamide]
- minimal effective concentration (D. immitis microfilariae): 10 µM
- minimal effective concentration (Haemonchus contortus L3): > 100 µM

SMILES: O=C(NCc1ccnc(Cl)c1)n1c2c(c3ccc(OC(F)(F)F)cc31)CN(Cc1ccc3cc(Cl)ccc3c1)CC2 [Example 368, 2-((6-chloronaphthalen-2-yl)methyl)-N-((2-chloropyridin-4-yl)methyl)-7-(trifluoromethoxy)-1,2,3,4-tetrahydro-5H-pyrido[4,3-b]indole-5-carboxamide]
- minimal effective concentration (D. immitis microfilariae): 43.5 µM
- minimal effective concentration (Haemonchus contortus L3): > 100 µM

SMILES: N#Cc1ccc(/C=C/CN2CCc3c(c4c(C(F)(F)F)cc(F)cc4n3C(=O)NCc3ccnc(Cl)c3)C2)cc1 [Example 320, (E)-N-((2-chloropyridin-4-yl)methyl)-2-(3-(4-cyanophenyl)allyl)-7-fluoro-9-(trifluoromethyl)-1,2,3,4-tetrahydro-5H-pyrido[4,3-b]indole-5-carboxamide]
- minimal effective concentration (D. immitis microfilariae): 18.2 µM
- minimal effective concentration (Haemonchus contortus L3): 3.3 µM

SMILES: O=C(NCc1ccnc(F)c1)n1c2c(c3ccc(OC(F)(F)F)cc31)CN(C/C=C/c1cc(F)cc(Cl)c1)CC2 [Example 380, (E)-2-(3-(3-chloro-5-fluorophenyl)allyl)-N-((2-fluoropyridin-4-yl)methyl)-7-(trifluoromethoxy)-1,2,3,4-tetrahydro-5H-pyrido[4,3-b]indole-5-carboxamide]
- minimal effective concentration (D. immitis microfilariae): 33 µM
- minimal effective concentration (Haemonchus contortus L3): > 100 µM

SMILES: N#Cc1ccc2c(c1)c1c(n2C(=O)NCc2ccnc(F)c2)CCN(C/C=C/c2cccc(Cl)c2F)C1 [Example 118, (E)-2-(3-(3-chloro-2-fluorophenyl)allyl)-8-cyano-N-((2-fluoropyridin-4-yl)methyl)-1,2,3,4-tetrahydro-5H-pyrido[4,3-b]indole-5-carboxamide]
- minimal effective concentration (D. immitis microfilariae): 5.7 µM
- minimal effective concentration (Haemonchus contortus L3): 1.8 µM

SMILES: CSc1ccc2c(c1)c1c(n2C(=O)NCc2ccnc(Cl)c2)CCN(C/C=C/c2ccc(F)cc2)C1 [Example 448, (E)-N-((2-chloropyridin-4-yl)methyl)-2-(3-(4-fluorophenyl)allyl)-8-(methylthio)-1,2,3,4-tetrahydro-5H-pyrido[4,3-b]indole-5-carboxamide]
- minimal effective concentration (D. immitis microfilariae): 3.3 µM
- minimal effective concentration (Haemonchus contortus L3): 1.3 µM

SMILES: O=C(NCc1ccnc(F)c1)n1c2c(c3cc(Cl)ccc31)CN(C/C=C/c1ccc(Cl)cc1)CC2 [Example 260, (E)-8-chloro-2-(3-(4-chlorophenyl)allyl)-N-((2-fluoropyridin-4-yl)methyl)-1,2,3,4-tetrahydro-5H-pyrido[4,3-b]indole-5-carboxamide]
- minimal effective concentration (D. immitis microfilariae): 10 µM
- minimal effective concentration (Haemonchus contortus L3): 0.4 µM

SMILES: N#Cc1ccc2c3c(n(C(=O)NCc4ccnc(Cl)c4)c2c1)CCN(C/C=C/c1ccc(F)c(Br)c1)C3 [Example 12, (E)-2-(3-(3-bromo-4-fluorophenyl)allyl)-N-((2-chloropyridin-4-yl)methyl)-7-cyano-1,2,3,4-tetrahydro-5H-pyrido[4,3-b]indole-5-carboxamide]
- minimal effective concentration (D. immitis microfilariae): 18.2 µM
- minimal effective concentration (Haemonchus contortus L3): 1.8 µM

SMILES: N#Cc1ccc2c(c1)c1c(n2C(=O)NCc2ccnc(F)c2)CCN(C/C=C/c2ccc(Br)c(F)c2)C1 [Example 105, (E)-2-(3-(4-bromo-3-fluorophenyl)allyl)-8-cyano-N-((2-fluoropyridin-4-yl)methyl)-1,2,3,4-tetrahydro-5H-pyrido[4,3-b]indole-5-carboxamide]
- minimal effective concentration (D. immitis microfilariae): > 100 µM
- minimal effective concentration (Haemonchus contortus L3): 0.3 µM

SMILES: O=C(NCc1ccnc(Cl)c1)n1c2c(c3ccc(Cl)cc31)CN(C/C=C/c1ccc(Cl)cc1)CC2 [Example 213, (E)-7-chloro-2-(3-(4-chlorophenyl)allyl)-N-((2-chloropyridin-4-yl)methyl)-1,2,3,4-tetrahydro-5H-pyrido[4,3-b]indole-5-carboxamide]
- minimal effective concentration (D. immitis microfilariae): 3.3 µM
- minimal effective concentration (Haemonchus contortus L3): 0.3 µM

SMILES: O=C(NCc1ccnc(Cl)c1)n1c2c(c3cc(F)c(Cl)cc31)CN(C/C=C/c1ccc(F)cc1F)CC2 [Example 299, (E)-7-chloro-N-((2-chloropyridin-4-yl)methyl)-2-(3-(2,4-difluorophenyl)-allyl)-8-fluoro-1,2,3,4-tetrahydro-5H-pyrido[4,3-b]indole-5-carboxamide]
- minimal effective concentration (D. immitis microfilariae): 1.8 µM
- minimal effective concentration (Haemonchus contortus L3): 0.4 µM

SMILES: CS(=O)(=O)c1ccc(/C=C/CN2CCc3c(c4cc(C#N)ccc4n3C(=O)NCc3ccnc(F)c3)C2)cc1 [Example 100, (E)-8-cyano-N-((2-fluoropyridin-4-yl)methyl)-2-(3-(4-(methylsulfonyl)-phenyl)allyl)-1,2,3,4-tetrahydro-5H-pyrido[4,3-b]indole-5-carboxamide]
- minimal effective concentration (D. immitis microfilariae): > 100 µM
- minimal effective concentration (Haemonchus contortus L3): > 100 µM

SMILES: O=C(NCc1ccnc(F)c1)n1c2c(c3cc(F)c(Cl)cc31)CN(C/C=C/c1ccc(Cl)c(F)c1)CC2 [Example 309, (E)-7-chloro-2-(3-(4-chloro-3-fluorophenyl)allyl)-8-fluoro-N-((2-fluoropyridin-4-yl)methyl)-1,2,3,4-tetrahydro-5H-pyrido[4,3-b]indole-5-carboxamide]
- minimal effective concentration (D. immitis microfilariae): 1.8 µM
- minimal effective concentration (Haemonchus contortus L3): 0.3 µM

SMILES: N#Cc1ccc2c3c(n(C(=O)NCc4ccnc(Cl)c4)c2c1)CCN(C/C=C/c1cc(F)ccc1Br)C3 [Example 10, (E)-2-(3-(2-bromo-5-fluorophenyl)allyl)-N-((2-chloropyridin-4-yl)methyl)-7-cyano-1,2,3,4-tetrahydro-5H-pyrido[4,3-b]indole-5-carboxamide]
- minimal effective concentration (D. immitis microfilariae): > 100 µM
- minimal effective concentration (Haemonchus contortus L3): 1 µM

SMILES: O=C(NCc1ccnc(Cl)c1)n1c2c(c3cc(Cl)c(Cl)cc31)CN(C/C=C/c1ccc(OC(F)(F)F)cc1)CC2 [Example 284, (E)-7,8-dichloro-N-((2-chloropyridin-4-yl)methyl)-2-(3-(4-(trifluoro-methoxy)phenyl)allyl)-1,2,3,4-tetrahydro-5H-pyrido[4,3-b]indole-5-carboxamide]
- minimal effective concentration (D. immitis microfilariae): 10 µM
- minimal effective concentration (Haemonchus contortus L3): > 100 µM

SMILES: N#Cc1ccc(/C=C/CN2CCc3c(c4cc(F)c(Cl)cc4n3C(=O)NCc3ccnc(Cl)c3)C2)cc1F [Example 298, (E)-7-chloro-N-((2-chloropyridin-4-yl)methyl)-2-(3-(4-cyano-3-fluoro-phenyl)allyl)-8-fluoro-1,2,3,4-tetrahydro-5H-pyrido[4,3-b]indole-5-carboxamide]
- minimal effective concentration (D. immitis microfilariae): > 100 µM
- minimal effective concentration (Haemonchus contortus L3): 1.8 µM

SMILES: Cc1ccc2c3c(n(C(=O)NCc4ccnc(Cl)c4)c2c1)CCN(C/C=C/c1ccc(C(F)(F)F)cc1)C3 [Example 150, (E)-N-((2-chloropyridin-4-yl)methyl)-7-methyl-2-(3-(4-(trifluoromethyl)-phenyl)allyl)-1,2,3,4-tetrahydro-5H-pyrido[4,3-b]indole-5-carboxamide]
- minimal effective concentration (D. immitis microfilariae): 10 µM
- minimal effective concentration (Haemonchus contortus L3): 3.3 µM

SMILES: O=C(NCc1ccnc(Cl)c1)n1c2c(c3cc(OC(F)(F)F)ccc31)CN(C/C=C/c1ccc(F)cc1)CC2 [Example 393, (E)-N-((2-chloropyridin-4-yl)methyl)-2-(3-(4-fluorophenyl)allyl)-8-(trifluoromethoxy)-1,2,3,4-tetrahydro-5H-pyrido[4,3-b]indole-5-carboxamide]
- minimal effective concentration (D. immitis microfilariae): 1.5 µM
- minimal effective concentration (Haemonchus contortus L3): 0.4 µM

SMILES: N#Cc1ccc2c(c1)c1c(n2C(=O)NCc2ccnc(F)c2)CCN(C/C=C/c2ccc(Br)c(F)c2F)C1 [Example 111, (E)-2-(3-(4-bromo-2,3-difluorophenyl)allyl)-8-cyano-N-((2-fluoropyridin-4-yl)methyl)-1,2,3,4-tetrahydro-5H-pyrido[4,3-b]indole-5-carboxamide]
- minimal effective concentration (D. immitis microfilariae): > 100 µM
- minimal effective concentration (Haemonchus contortus L3): 0.3 µM
